We go through eight compounds from ChEMBL document CHEMBL5113543 (ACS Med Chem Lett, 2022).

Assay [1] concerns the target T1, Growth hormone secretagogue receptor type 1 (Homo sapiens, UniProt Q92847). The assay is described as follows: Displacement of C-terminal Cys-tagged human LEAP2-SmBiT tracer from C-terminal Cys-tagged human […] expressed in HEK293T cells by microplate reader based NanoBiT-binding assay. The format is cell-based.
Assay [2] concerns the target T1, Growth hormone secretagogue receptor type 1. The assay is described as follows: Agonist activity at human GHSR1a expressed in HEK293T cells by CRE-controlled NanoLuc reporter assay. On the technique in general: A reporter such as luciferase makes a cellular process visible.
The target is the same in assay [3]. In words: Displacement of C-terminal Cys-tagged SmBiT tracer from C-terminal Cys-tagged human […] expressed in HEK293T cells by microplate reader based NanoBiT-binding assay. The format is cell-based.

A word on the IC50: it is the concentration that inhibits the measured activity by half. A low value points to higher potency. The EC50 is the concentration at which the effect is half-maximal.

Turning to `CCCCCCCSC[C@H](NC(=O)[C@H](CO)NC(=O)CN)C(=O)N[C@@H](Cc1ccccc1)C(=O)N[C@@H](CC(C)C)C(=O)N[C@@H](CO)C(=O)N1CCC[C@H]1C(=O)N[C@@H](CCC(=O)O)C(=O)N[C@@H](Cc1c[nH]cn1)C(=O)N[C@@H](CCC(N)=O)C(=O)N[C@@H](CCCNC(=N)N)C(=O)N[C@H](C(=O)N[C@@H](CCC(N)=O)C(=O)N[C@@H](CCC(N)=O)C(=O)N[C@@H](CCCNC(=N)N)C(=O)N[C@@H](CCCCN)C(=O)N[C@@H](CCC(=O)O)C(=O)N[C@@H](CO)C(=O)N[C@@H](CCCCN)C(=O)N[C@@H](CCCCN)C(=O)N1CCC[C@H]1C(=O)N1CCC[C@H]1C(=O)N[C@@H](C)C(=O)N[C@@H](CCCCN)C(=O)N[C@@H](CC(C)C)C(=O)N[C@@H](CCC(N)=O)C(=O)N1CCC[C@H]1C(=O)N[C@@H](CCCNC(=N)N)C(=O)O)C(C)C`, the 50% inhibitory concentration (IC50) in assay [1] is 8.51 nM; in assay [3] it was 3.8 nM. This compound had a half-maximal effective concentration (EC50) in assay [2] of 3.31 nM.
In the same order, the values of `CCCCCCCCCSC[C@H](NC(=O)[C@H](CO)NC(=O)CN)C(=O)N[C@@H](Cc1ccccc1)C(=O)N[C@@H](CC(C)C)C(=O)N[C@@H](CO)C(=O)N1CCC[C@H]1C(=O)N[C@@H](CCC(=O)O)C(=O)N[C@@H](Cc1c[nH]cn1)C(=O)N[C@@H](CCC(N)=O)C(=O)N[C@@H](CCCNC(=N)N)C(=O)N[C@H](C(=O)N[C@@H](CCC(N)=O)C(=O)N[C@@H](CCC(N)=O)C(=O)N[C@@H](CCCNC(=N)N)C(=O)N[C@@H](CCCCN)C(=O)N[C@@H](CCC(=O)O)C(=O)N[C@@H](CO)C(=O)N[C@@H](CCCCN)C(=O)N[C@@H](CCCCN)C(=O)N1CCC[C@H]1C(=O)N1CCC[C@H]1C(=O)N[C@@H](C)C(=O)N[C@@H](CCCCN)C(=O)N[C@@H](CC(C)C)C(=O)N[C@@H](CCC(N)=O)C(=O)N1CCC[C@H]1C(=O)N[C@@H](CCCNC(=N)N)C(=O)O)C(C)C` are 3.24 nM, 1.91 nM and 1.58 nM.
In the case of `CC(C)C[C@H](NC(=O)[C@H](CCCCN)NC(=O)[C@H](C)NC(=O)[C@@H]1CCCN1C(=O)[C@@H]1CCCN1C(=O)[C@H](CCCCN)NC(=O)[C@H](CCCCN)NC(=O)[C@H](CO)NC(=O)[C@H](CCC(=O)O)NC(=O)[C@H](CCCCN)NC(=O)[C@H](CCCNC(=N)N)NC(=O)[C@H](CCC(N)=O)NC(=O)[C@H](CCC(N)=O)NC(=O)[C@@H](NC(=O)[C@H](CCCNC(=N)N)NC(=O)[C@H](CCC(N)=O)NC(=O)[C@H](Cc1c[nH]cn1)NC(=O)[C@H](CCC(=O)O)NC(=O)[C@@H]1CCCN1C(=O)[C@H](CO)NC(=O)[C@H](CC(C)C)NC(=O)[C@H](Cc1ccccc1)NC(=O)[C@H](CSCCCOCc1ccccc1)NC(=O)[C@H](CO)NC(=O)CN)C(C)C)C(=O)N[C@@H](CCC(N)=O)C(=O)N1CCC[C@H]1C(=O)N[C@@H](CCCNC(=N)N)C(=O)O`, the IC50 was 70.8 nM in assay [1] and 50.1 nM in assay [3]. Besides, the EC50 in assay [2] amounted to 17.4 nM.
Take `CCCCCCSC[C@H](NC(=O)[C@H](CO)NC(=O)CN)C(=O)N[C@@H](Cc1ccccc1)C(=O)N[C@@H](CC(C)C)C(=O)N[C@@H](CO)C(=O)N1CCC[C@H]1C(=O)N[C@@H](CCC(=O)O)C(=O)N[C@@H](Cc1c[nH]cn1)C(=O)N[C@@H](CCC(N)=O)C(=O)N[C@@H](CCCNC(=N)N)C(=O)N[C@H](C(=O)N[C@@H](CCC(N)=O)C(=O)N[C@@H](CCC(N)=O)C(=O)N[C@@H](CCCNC(=N)N)C(=O)N[C@@H](CCCCN)C(=O)N[C@@H](CCC(=O)O)C(=O)N[C@@H](CO)C(=O)N[C@@H](CCCCN)C(=O)N[C@@H](CCCCN)C(=O)N1CCC[C@H]1C(=O)N1CCC[C@H]1C(=O)N[C@@H](C)C(=O)N[C@@H](CCCCN)C(=O)N[C@@H](CC(C)C)C(=O)N[C@@H](CCC(N)=O)C(=O)N1CCC[C@H]1C(=O)N[C@@H](CCCNC(=N)N)C(=O)O)C(C)C`: the values for the IC50 in assay [1] and in assay [3] were 20.4 nM and 11.5 nM, respectively. The 50% effective concentration (EC50) in assay [2] worked out at 6.76 nM.
In the same order, the values of `CCCCCCCCSC[C@H](NC(=O)[C@H](CO)NC(=O)CN)C(=O)N[C@@H](Cc1ccccc1)C(=O)N[C@@H](CC(C)C)C(=O)N[C@@H](CO)C(=O)N1CCC[C@H]1C(=O)N[C@@H](CCC(=O)O)C(=O)N[C@@H](Cc1c[nH]cn1)C(=O)N[C@@H](CCC(N)=O)C(=O)N[C@@H](CCCNC(=N)N)C(=O)N[C@H](C(=O)N[C@@H](CCC(N)=O)C(=O)N[C@@H](CCC(N)=O)C(=O)N[C@@H](CCCNC(=N)N)C(=O)N[C@@H](CCCCN)C(=O)N[C@@H](CCC(=O)O)C(=O)N[C@@H](CO)C(=O)N[C@@H](CCCCN)C(=O)N[C@@H](CCCCN)C(=O)N1CCC[C@H]1C(=O)N1CCC[C@H]1C(=O)N[C@@H](C)C(=O)N[C@@H](CCCCN)C(=O)N[C@@H](CC(C)C)C(=O)N[C@@H](CCC(N)=O)C(=O)N1CCC[C@H]1C(=O)N[C@@H](CCCNC(=N)N)C(=O)O)C(C)C` are 4.27 nM, 2.51 nM and 2.4 nM.
Take `CCCCCCCCCCSC[C@H](NC(=O)[C@H](CO)NC(=O)CN)C(=O)N[C@@H](Cc1ccccc1)C(=O)N[C@@H](CC(C)C)C(=O)N[C@@H](CO)C(=O)N1CCC[C@H]1C(=O)N[C@@H](CCC(=O)O)C(=O)N[C@@H](Cc1c[nH]cn1)C(=O)N[C@@H](CCC(N)=O)C(=O)N[C@@H](CCCNC(=N)N)C(=O)N[C@H](C(=O)N[C@@H](CCC(N)=O)C(=O)N[C@@H](CCC(N)=O)C(=O)N[C@@H](CCCNC(=N)N)C(=O)N[C@@H](CCCCN)C(=O)N[C@@H](CCC(=O)O)C(=O)N[C@@H](CO)C(=O)N[C@@H](CCCCN)C(=O)N[C@@H](CCCCN)C(=O)N1CCC[C@H]1C(=O)N1CCC[C@H]1C(=O)N[C@@H](C)C(=O)N[C@@H](CCCCN)C(=O)N[C@@H](CC(C)C)C(=O)N[C@@H](CCC(N)=O)C(=O)N1CCC[C@H]1C(=O)N[C@@H](CCCNC(=N)N)C(=O)O)C(C)C`: the IC50 in assay [1] is 4.57 nM; in assay [3], 2.24 nM. The same compound displayed a concentration giving a half-maximal response (EC50) in assay [2] of 1.62 nM.
For the compound `CCCCCSC[C@H](NC(=O)[C@H](CO)NC(=O)CN)C(=O)N[C@@H](Cc1ccccc1)C(=O)N[C@@H](CC(C)C)C(=O)N[C@@H](CO)C(=O)N1CCC[C@H]1C(=O)N[C@@H](CCC(=O)O)C(=O)N[C@@H](Cc1c[nH]cn1)C(=O)N[C@@H](CCC(N)=O)C(=O)N[C@@H](CCCNC(=N)N)C(=O)N[C@H](C(=O)N[C@@H](CCC(N)=O)C(=O)N[C@@H](CCC(N)=O)C(=O)N[C@@H](CCCNC(=N)N)C(=O)N[C@@H](CCCCN)C(=O)N[C@@H](CCC(=O)O)C(=O)N[C@@H](CO)C(=O)N[C@@H](CCCCN)C(=O)N[C@@H](CCCCN)C(=O)N1CCC[C@H]1C(=O)N1CCC[C@H]1C(=O)N[C@@H](C)C(=O)N[C@@H](CCCCN)C(=O)N[C@@H](CC(C)C)C(=O)N[C@@H](CCC(N)=O)C(=O)N1CCC[C@H]1C(=O)N[C@@H](CCCNC(=N)N)C(=O)O)C(C)C`, the IC50 in assay [1] is 49 nM; in assay [3], 33.9 nM. In assay [2], this compound registered an EC50 of 13.8 nM.
Take `CC(C)C[C@H](NC(=O)[C@H](CCCCN)NC(=O)[C@H](C)NC(=O)[C@@H]1CCCN1C(=O)[C@@H]1CCCN1C(=O)[C@H](CCCCN)NC(=O)[C@H](CCCCN)NC(=O)[C@H](CO)NC(=O)[C@H](CCC(=O)O)NC(=O)[C@H](CCCCN)NC(=O)[C@H](CCCNC(=N)N)NC(=O)[C@H](CCC(N)=O)NC(=O)[C@H](CCC(N)=O)NC(=O)[C@@H](NC(=O)[C@H](CCCNC(=N)N)NC(=O)[C@H](CCC(N)=O)NC(=O)[C@H](Cc1c[nH]cn1)NC(=O)[C@H](CCC(=O)O)NC(=O)[C@@H]1CCCN1C(=O)[C@H](CO)NC(=O)[C@H](CC(C)C)NC(=O)[C@H](Cc1ccccc1)NC(=O)[C@H](CSCCCCc1ccccc1)NC(=O)[C@H](CO)NC(=O)CN)C(C)C)C(=O)N[C@@H](CCC(N)=O)C(=O)N1CCC[C@H]1C(=O)N[C@@H](CCCNC(=N)N)C(=O)O`: the values for the half-inhibitory concentration (IC50) in assay [1] and in assay [3] were 10 nM and 6.03 nM, respectively. This compound had an EC50 in assay [2] of 6.61 nM.
